# Source: patent publication US11236102B2, “Oxabicycloheptane prodrugs” (Lixte Biotechnology, Inc., priority 2015, dated 2022)
# Where “and” joins values, the source holds several entries; their conditions need not be identical. Identical values can stand only once. Like-named read-outs stand apart in the source and are kept apart here.
# Legend:
# [1] = Pharmacokinetic study of 151 (iv, oral) in SD rats: 151 and 100 in plasma; type: in vivo; conditions: for AUC(0-t): read-out: AUC0-t of 151; for AUC(0-inf): read-out: AUC0-∞ of 151; for concentration at 0.5 h: 0.50 h
# Protocol: The absolute bioavailability was evaluated.
# To each sample, 160 μL of acetonitrile were added.
# The mass spectrometer was operated in the positive mode.
# Quantification was achieved by the external standard method.
# Calibration Curve for Plasma Samples
# LB100 concentrations of the LB151 plasma samples were also measured and pharmacokinetic parameters were calculated.
# [2] = Liver S9 stability and metabolite formation; type: in vitro ADME, rat, dog, monkey and human; conditions: presence and absence of NADPH, cross species
# Protocol: The stability (whole blood, liver S9, SGF, SIF, and PBS buffer) and MDCK-MDR1 monolayer permeability of LB100, LB-100 Carbonate and LB-100 POM were evaluated.
# Samples were analyzed by LC-MS/MS using a SCIEX QTrap 5500 mass spectrometer coupled with an Agilent 1290 HPLC Infinity series, a CTC PAL chilled autosampler, all controlled by Analyst software. After separation on a C18 reverse phase HPLC column (Acquity UPLC HSS T3, 1.8, 2.1×50 mm) using an acetonitrile-water gradient system, peaks were analyzed by mass spectrometry (MS) using […] ionization in MRM mode.
# Experimental Procedure: Test agent is incubated in duplicate with liver S9 at 37° C. The reaction contains liver S9 protein in 100 mM potassium phosphate, 2 mM NADPH, 3 mM MgCl2, pH 7.4. A control is run for each test agent omitting NADPH to detect NADPH-free degradation. At indicated times, an aliquot is removed from each experimental and control reaction and mixed with an equal volume of ice-cold Stop Solution (methanol, containing internal standard propranolol). Stopped reactions are incubated for 10 minutes at −20° C. Samples are centrifuged to remove precipitated protein, and supernatants are analyzed by LC/MS/MS to quantitate remaining parent and the formation of metabolites. Data are reported as % remaining by dividing by the time zero concentration value.
# [3] = male, Sprague-Dawley, rat, in vivo, iv, 1 mg/kg, plasma, 151 IV 1.0 mg/kg, SD rats, individual rats
# [4] = male, Sprague-Dawley, rat, in vivo, iv, 1 mg/kg, plasma, 151 IV 1.0 mg/kg, SD rats, mean
# [5] = male, Sprague-Dawley, rat, in vivo, po, 10 mg/kg, 151 PO 10 mg/kg, SD rats, individual rats
# [6] = male, Sprague-Dawley, rat, in vivo, po, 10 mg/kg, 151 PO 10 mg/kg, SD rats, mean
# [7] = male, Sprague-Dawley, rat, in vivo, po, 10 mg/kg, plasma, 151 PO 10 mg/kg, SD rats, individual rats
# [8] = male, Sprague-Dawley, rat, in vivo, po, 10 mg/kg, plasma, 151 PO 10 mg/kg, SD rats, mean
# [9] = plasma, 151 IV 1.0 mg/kg, SD rats, individual rats, 1 mg/kg
# [10] = plasma, 151 PO 10 mg/kg, SD rats, individual rats, 10 mg/kg
smiles,measurement,setting,value
COC(=O)C1C2CCC(O2)C1C(=O)N1CCN(C)CC1 (stereo not shown) [Compound 151],MRT,[1]; [3],0.91 h
same,AUC(0-t),[1]; [3],1290 ng·h/mL
same,AUC(0-inf),[1]; [3],1310 ng·h/mL
same,half-life,"[1]; male, Sprague-Dawley, rat, in vivo, iv, 1 mg/kg, plasma, 151 IV 1.0 mg/kg, SD rats, individual rats, read-out: T1/2 of 151 (converted)",0.91 h
same,MRT,[1]; [4],0.86 h
same,AUC(0-t),[1]; [4],1170 ng·h/mL
same,AUC(0-inf),[1]; [4],1180 ng·h/mL
same,half-life,"[1]; male, Sprague-Dawley, rat, in vivo, iv, 1 mg/kg, plasma, 151 IV 1.0 mg/kg, SD rats, mean, read-out: T1/2 of 151 (converted)",0.89 h
same,concentration at 0.25 h,[1]; [5],2230 ng/mL
same,concentration at 0.25 h,[1]; [6],2330 ng/mL
same,concentration at 0.5 h,[1]; [5],2450 ng/mL
same,concentration at 0.5 h,[1]; [6],3240 ng/mL
same,concentration at 1 h,[1]; [5],2200 ng/mL
same,concentration at 1 h,[1]; [6],2440 ng/mL
same,concentration at 2 h,[1]; [5],1100 ng/mL
same,concentration at 2 h,[1]; [6],1310 ng/mL
same,concentration at 3 h,[1]; [5],521 ng/mL
same,concentration at 3 h,[1]; [6],658 ng/mL
same,concentration at 5 h,[1]; [5],125 ng/mL
same,concentration at 5 h,[1]; [6],139 ng/mL
same,concentration at 7 h,"[1]; male, Sprague-Dawley, rat, in vivo, po, 10 mg/kg, 151 PO 10 mg/kg, SD rats, 7.0 h, mean",43.8 ng/mL
same,concentration at 9 h,[1]; [5],52.1 ng/mL
same,concentration at 9 h,[1]; [6],52.1 ng/mL
same,half-life,"[1]; male, Sprague-Dawley, rat, in vivo, po, 10 mg/kg, 151 oral 10 mg/kg, SD rats (n=3), read-out: mean half-life (converted)",1.26 h
same,Cmax,[1]; [7],2450 ng/mL
same,MRT,[1]; [7],1.86 h
same,AUC(0-t),[1]; [7],5400 ng·h/mL
same,AUC(0-inf),[1]; [7],5500 ng·h/mL
same,half-life,"[1]; male, Sprague-Dawley, rat, in vivo, po, 10 mg/kg, plasma, 151 PO 10 mg/kg, SD rats, individual rats, read-out: T1/2 of 151 (converted)",1.33 h
same,Cmax,[1]; [8],3240 ng/mL
same,MRT,[1]; [8],1.81 h
same,AUC(0-t),[1]; [8],6340 ng·h/mL
same,AUC(0-inf),[1]; [8],6440 ng·h/mL
same,half-life,"[1]; male, Sprague-Dawley, rat, in vivo, po, 10 mg/kg, plasma, 151 PO 10 mg/kg, SD rats, mean, read-out: T1/2 of 151 (converted)",1.26 h
same,bioavailability,"[1]; male, Sprague-Dawley, rat, in vivo, 151 oral 10 mg/kg, based on AUC0-∞, read-out: absolute bioavailability (F)",54.6%
same,Tmax,"[1]; male, Sprague-Dawley, rat, in vivo, plasma, 151 PO 10 mg/kg, SD rats, mean",0.5 h
same,AUC0-t of 151,[1]; [9],1045 ng·h/mL
same,AUC0-∞ of 151,[1]; [9],1047 ng·h/mL
same,MRT of 151,[1]; [9],0.81 h
same,T1/2 of 151,[1]; [9],0.87 h
same,AUC0-t of 151,[1]; [10],6423 ng·h/mL and 7199 ng·h/mL
same,AUC0-∞ of 151,[1]; [10],6484 ng·h/mL and 7328 ng·h/mL
same,Cmax of 151,[1]; [10],3934 ng/mL and 3343 ng/mL
same,MRT of 151,[1]; [10],1.62 h and 1.95 h
same,T1/2 of 151,[1]; [10],1.10 h and 1.35 h
same,metabolites observed in liver S9 stability study,[2],No metabolites were observed
